The text below walks through data of ChEMBL document CHEMBL1201862, “PubChem BioAssay data set” (2004).

Holding throughout (experiment): NCI-60 cell line screen, 48 h
Assay [1] has as its system BT-549.
Assay [2] concerns SW-620.
For assay [3], the system named is OVCAR-4.
Assay [4] has as its system SF-539.
In assay [5] the test system is SK-MEL-2.
Assay [6] relates to NCI-H522.
The subject of assay [7] is SF-295.
Assay [8] deals with LOX IMVI.
The subject of assay [9] is HCT-15.
Assay [10] has as its system U-251.
In assay [11] the test system is DU-145.
The subject of assay [12] is MDA-N.
Assay [13] deals with UO-31.
Assay [14] relates to CAKI-1.
Assay [15] concerns KM12.
Assay [16] concerns HOP-62.
Assay [17] relates to CCRF-CEM.
Assay [18] concerns SK-OV-3.
For assay [19], the system named is HL-60.

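All cell lines were grown in 96-well plates and treated with compound for 48 hours. GI50 = concentration required for 50% inhibition of growth.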 The source made the active and inactive calls. Rule as the data show it: active = GI50 up to about 1.1 µM and inactive = higher.

For the molecule `CCOC1OC(CO[Si](C)(C)C(C)(C)C)C(O)CC1n1ccc(=O)[nH]c1=O` (stereo not given), the GI50 in assay [1] was > 100 µM (inactive); in assay [2], 23.2 µM (inactive); in assay [3], > 100 µM (inactive); in assay [4], 75.7 µM (inactive); in [5], > 100 µM (inactive); in assay [6], 20.6 µM (inactive). In addition, the GI50 in assay [7] was > 100 µM (inactive); in assay [8], 17.4 µM (inactive); in [9], 35.6 µM; in [10] it was > 100 µM (inactive); in [11], > 100 µM (inactive); in assay [12] it was > 100 µM (inactive). Further, the GI50 was > 100 µM (inactive) in [13], 56.4 µM (inactive) in assay [14] and 88.7 µM (inactive) in assay [15].
For `CC(C)(C)n1c(=O)n2n(c1=O)Cc1cccc3cccc(c13)C2`, the GI50 in assay [1] was 31.8 µM (inactive); in assay [2], 17 µM (inactive); in [3], 19.6 µM (inactive); in assay [4], 17.2 µM (inactive); in [16] it was 14 µM (inactive); in [17] it was 4.31 µM (inactive). In addition, the GI50 in assay [5] was 17.9 µM (inactive); in assay [6], 2.99 µM (inactive); in assay [7] it was 17 µM (inactive); in assay [8], 23.8 µM (inactive); in assay [9], 18.5 µM; in [18] it was 27.1 µM (inactive). Moreover, the GI50 in assay [10] was 15.3 µM (inactive); in [11], 35.5 µM (inactive); in assay [12] it was 22.1 µM (inactive); in assay [13], 22.1 µM (inactive); in assay [14], 15.1 µM (inactive); in assay [15], 14.7 µM (inactive).
Consider `CC1CCCC2=C1C(c1ccc(Cl)cc1)n1c(s/c(=C\c3ccc(Cl)cc3)c1=O)=N2` (stereo not given), for which the GI50 in [1] was 22.1 µM (inactive); in assay [2], > 100 µM (inactive); in assay [16] it was > 100 µM (inactive); in assay [17], > 100 µM (inactive); in assay [5] it was > 100 µM (inactive); in assay [8], > 100 µM (inactive). The GI50 in assay [9] was > 100 µM; in assay [18], > 100 µM (inactive); in [10] it was > 100 µM (inactive); in assay [11], > 100 µM (inactive); in assay [12], > 100 µM (inactive); in [13], > 100 µM (inactive). Besides, the GI50 in assay [14] and in assay [15] was > 100 µM (inactive) each time.
Regarding `CC(=O)OC12CC(C(F)(F)F)(C(F)(F)F)OC1(OC(C)=O)CC(C(F)(F)F)(C(F)(F)F)O2` (stereo not given), the GI50 in assay [1] is 5.42 µM (inactive); in assay [2], 5.43 µM (inactive); in assay [19], 1.89 µM (inactive); in assay [3], 4.23 µM (inactive); in assay [4], 2.07 µM (inactive); in assay [16] it was 25.4 µM (inactive). Moreover, the GI50 in assay [17] was 2.04 µM (inactive); in [5] it was 5.75 µM (inactive); in [6], 1.24 µM (inactive); in [7], 6.76 µM (inactive); in assay [8] it was 1.73 µM (inactive); in [9] it was 11.5 µM. The GI50 in assay [18] is 4.94 µM (inactive); in assay [10], 1.63 µM (inactive); in assay [11] it was 4.06 µM (inactive); in assay [12], 5.92 µM (inactive); in assay [13], 1.36 µM (inactive); in assay [15], 2.33 µM (inactive).
Turning to `CCOC(=O)c1c(SCCN2CCOCC2)n(-c2ccccc2)c(=S)n(-c2ccccc2)c1=O`, the GI50 in assay [1] was 39.3 µM (inactive); in assay [2], 21.1 µM (inactive); in assay [19] it was 20.8 µM (inactive); in [3] it was > 100 µM (inactive); in assay [17] it was 30.1 µM (inactive); in assay [5], > 100 µM (inactive). In addition, the GI50 in [6] was 43.7 µM (inactive); in [7], 25.6 µM (inactive); in assay [8], 18.5 µM (inactive); in assay [9] it was 20 µM; in assay [10], > 100 µM (inactive); in assay [11], > 10 µM (inactive). Moreover, the GI50 was 36.5 µM (inactive) in assay [12], > 100 µM (inactive) in assay [13] and > 100 µM (inactive) in assay [15].
With `O=C1C=C2CC[C@H]3[C@@H]4CC[C@H](OC(=O)c5cccc6cc7ccccc7nc56)[C@H]4CC[C@@H]3[C@H]2CC1`, the GI50 in assay [1], in [2], in [19], in assay [3], in assay [4] and in [16] was > 100 µM (inactive) each time. Further, the GI50 is 24.7 µM (inactive) in assay [17]; > 100 µM (inactive) in [5]; 25.5 µM (inactive) in [6]; > 100 µM (inactive) in assay [7]; 15.9 µM (inactive) in [8]; > 100 µM in assay [9]. Moreover, the GI50 was > 100 µM (inactive) in assay [18]; 99.3 µM (inactive) in [10]; > 100 µM (inactive) in assay [11]; > 100 µM (inactive) in [12]; 79.6 µM (inactive) in assay [13]; > 100 µM (inactive) in assay [15].
As to `Cc1nc2c(=S)[nH]ncc2[nH]1`, the GI50 in assay [1], in assay [2], in assay [19], in assay [3], in [4] and in assay [16] was > 100 µM (inactive) throughout. The GI50 was > 100 µM (inactive) in assay [17]; > 100 µM (inactive) in [5]; > 100 µM (inactive) in [6]; > 100 µM (inactive) in assay [7]; > 100 µM (inactive) in assay [8]; > 100 µM in assay [9]. The GI50 in [18], in assay [10], in assay [12], in assay [13], in assay [14] and in assay [15] was > 100 µM (inactive) throughout.
Regarding `O=C1c2ccccc2C2(c3ccc(F)cc3)NCCN12` (stereo not given), the GI50 in [1], in assay [2], in assay [19], in assay [3], in [16] and in assay [17] was > 100 µM (inactive) each time. In addition, the GI50 in assay [5] was > 100 µM (inactive); in [6], > 100 µM (inactive); in [7], > 100 µM (inactive); in [9] it was > 100 µM; in assay [18] it was > 100 µM (inactive); in [10] it was > 100 µM (inactive). Moreover, the GI50 in assay [11], in assay [12], in assay [13], in assay [14] and in [15] was > 100 µM (inactive) in each case.
As for `N#C[BH2-][n+]1cn(C2CC(O)C(COP(=O)(O)OC3CC(n4cnc5c(=O)[nH]c(N)nc54)OC3CO)O2)c2nc(N)[nH]c(=O)c21` (stereo not given), the GI50 in [1] was 6.25 µM (inactive); in assay [2] it was > 100 µM (inactive); in [19], > 100 µM (inactive); in assay [3], > 100 µM (inactive); in assay [4], > 100 µM (inactive); in [16], 84.7 µM (inactive). In addition, the GI50 in [17] is 20.5 µM (inactive); in assay [5], > 100 µM (inactive); in [6], > 100 µM (inactive); in assay [7], > 100 µM (inactive); in assay [9], > 100 µM; in [10] it was > 100 µM (inactive). In addition, the GI50 in [11], in assay [12], in assay [13], in assay [14] and in [15] was > 100 µM (inactive) in each case.
For `CC(=O)Nc1sc(Br)cc1S(=O)(=O)c1ccc(Cl)cc1`, the GI50 is 35.6 µM (inactive) in assay [1]; 71.1 µM (inactive) in [2]; 21.9 µM (inactive) in assay [19]; 23.2 µM (inactive) in assay [3]; 0.731 µM (active) in [4]; 35.1 µM (inactive) in [17]. The GI50 in assay [5] is 30.1 µM (inactive); in assay [6], 19.3 µM (inactive); in assay [7] it was 31.2 µM (inactive); in [9], > 10 µM; in assay [18], 43.1 µM (inactive); in assay [10] it was 34.8 µM (inactive). Besides, the GI50 was 46.6 µM (inactive) in assay [11]; 43.5 µM (inactive) in assay [12]; 22.5 µM (inactive) in assay [13]; > 100 µM (inactive) in [14]; 20.3 µM (inactive) in assay [15].
With `CCOC(=O)c1nnc2c(C#N)c(-c3ccccc3)c(C)n2c1N`, the GI50 was 40.4 µM (inactive) in [1]; 40.6 µM (inactive) in assay [2]; 10.9 µM (inactive) in assay [3]; 30.9 µM (inactive) in [4]; 85.7 µM (inactive) in assay [16]; 39.7 µM (inactive) in assay [17]. The GI50 in [5] is 42.4 µM (inactive); in [6], 27.7 µM (inactive); in assay [7], 34.1 µM (inactive); in [8] it was 34.7 µM (inactive); in [9], 37.5 µM; in assay [18] it was 23.9 µM (inactive). Further, the GI50 in assay [10] was 38 µM (inactive); in assay [11], 83.9 µM (inactive); in assay [12], 27 µM (inactive); in [13], 33.4 µM (inactive); in [14], 52.6 µM (inactive); in assay [15], 30.6 µM (inactive).
Consider `CC(C)(C)OC(=O)C1/C(=C/CBr)CN1C(=O)OC(C)(C)C` (stereo not given), for which the GI50 in [1] is 16.7 µM (inactive); in [2], 5 µM (inactive); in [19], 2.66 µM (inactive); in assay [3], 2.86 µM (inactive); in assay [4], 18.5 µM (inactive); in [16] it was 15.8 µM (inactive). Further, the GI50 was 2.64 µM (inactive) in assay [17]; > 10 µM (inactive) in assay [5]; 15.9 µM (inactive) in assay [7]; 3.24 µM (inactive) in assay [8]; 8.67 µM in assay [9]; 21.1 µM (inactive) in assay [18]. In addition, the results for the GI50 in assay [12], in assay [13] and in [14] were 14.7 µM (inactive), 18.8 µM (inactive) and 16.5 µM (inactive), respectively.
